As usually defined, the IC50 is the midpoint of a concentration-inhibition curve.

The assay deals with PI 3-kinase gamma (Homo sapiens (Human), UniProt P48736). Nature of the assay: TR-FRET Adapta assay (Assay E). It is filed as biochemical. Conditions: read-out: Assay E PI3Kγ IC50. An excerpt: TR-FRET Adapta Assay for PI 3-Kinase Gamma (E), PI 3-Kinase Delta (F)
PI 3-kinase gamma, sequence (P48736 whole entry): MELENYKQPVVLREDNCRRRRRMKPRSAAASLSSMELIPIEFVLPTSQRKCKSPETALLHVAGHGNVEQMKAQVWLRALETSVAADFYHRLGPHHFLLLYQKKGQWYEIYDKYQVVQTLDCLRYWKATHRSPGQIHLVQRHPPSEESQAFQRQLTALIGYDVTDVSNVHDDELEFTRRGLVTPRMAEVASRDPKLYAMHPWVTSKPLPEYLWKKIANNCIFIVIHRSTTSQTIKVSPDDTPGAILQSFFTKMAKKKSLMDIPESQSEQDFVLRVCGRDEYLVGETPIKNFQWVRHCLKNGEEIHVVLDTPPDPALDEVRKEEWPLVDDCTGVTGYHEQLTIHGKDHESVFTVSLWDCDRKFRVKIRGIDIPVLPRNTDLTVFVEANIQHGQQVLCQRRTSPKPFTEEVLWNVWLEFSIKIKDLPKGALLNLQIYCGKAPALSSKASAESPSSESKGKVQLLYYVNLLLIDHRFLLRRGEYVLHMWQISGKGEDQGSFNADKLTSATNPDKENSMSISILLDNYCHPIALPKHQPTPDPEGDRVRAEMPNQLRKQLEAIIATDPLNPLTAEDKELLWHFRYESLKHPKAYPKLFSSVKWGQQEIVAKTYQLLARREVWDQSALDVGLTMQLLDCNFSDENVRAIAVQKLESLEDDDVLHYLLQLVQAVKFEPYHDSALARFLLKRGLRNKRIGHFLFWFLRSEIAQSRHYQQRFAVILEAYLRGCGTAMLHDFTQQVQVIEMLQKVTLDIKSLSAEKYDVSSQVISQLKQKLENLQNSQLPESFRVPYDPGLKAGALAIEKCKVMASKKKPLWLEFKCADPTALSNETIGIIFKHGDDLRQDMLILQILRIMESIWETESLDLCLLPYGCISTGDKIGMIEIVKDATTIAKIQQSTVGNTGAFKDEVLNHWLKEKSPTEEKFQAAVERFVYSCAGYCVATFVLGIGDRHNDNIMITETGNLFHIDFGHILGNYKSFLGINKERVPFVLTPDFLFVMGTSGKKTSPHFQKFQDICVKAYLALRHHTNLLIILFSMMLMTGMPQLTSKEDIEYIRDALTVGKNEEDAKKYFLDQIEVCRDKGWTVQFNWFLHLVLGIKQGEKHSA
The TR-FRET Adapta™ Universal Kinase Assay Kit was purchased from Invitrogen Corporation (Carlsbad/CA, USA) (Cat. No. PV5099). The kit contains the following reagents: Adapta Eu-anti-ADP Antibody (Europium labeled anti-ADP antibody in HEPES buffered saline, Cat. No. PV5097), Alexa Fluor® 647-labeled ADP tracer (Alexa Fluor® 647-labeled ADP tracer in HEPES buffered saline, Cat. No. PV5098), TR-FRET dilution buffer pH 7.5 (Cat. No. PV3574). PIK3CD substrate phosphatidylinositol (PI) was obtained from Invitrogen (vesicules consisting of 2 mM phosphatidylinositol (PI) in 50 mM HEPES pH7.5; Cat. No. PV5371). PIK3CG substrate phosphatidylinositol-4,5-bisphosphate (PIP(4,5)2 was obtained from Invitrogen (PIP2:PS large unilamellar vesicules consisting of 1 mM PIP2: 19 mM PS in 50 mM HEPES pH7.5, 3 mM MgCl2, 1 mM EGTA; Cat. No. PV5100).
Time-Resolved Fluorescence Resonance Energy Transfer (TR-FRET) is a technology based on energy transfer between two adjacent dyes, from an excited electron in one dye (the donor) to an electron of an adjacent dye (the acceptor) through resonance, then released as a photon. This energy transfer is detected by an increase in the fluorescence emission of the acceptor, and a decrease in the fluorescence emission of the donor. TR-FRET assays for protein kinases use a long-lifetime lanthanide Terbium or Europium chelates as the donor species which overcome interference from compound autofluorescence or light scatter from precipitated compounds, by introducing a delay after excitation by a flashlamp excitation source. Results are often expressed as a ratio of the intensities of the acceptor and donor fluorophores. The ratiometric nature of such a value corrects for differences in assay volumes between wells, as well as corrects for quenching effects due to colored compounds. The Adapta™ assay can be divided into two phases: a kinase reaction phase and an ADP detection phase. In the kinase reaction phase, all kinase reaction components are added to the well and the reaction is allowed to incubate for a set period of time specific for each kinase. After the reaction, a detection solution of Eu-labeled anti-ADP antibody, Alexa Fluor® 647-labeled ADP tracer, and EDTA (to stop the kinase reaction) are added to the assay well. ADP formed by the kinase reaction will displace the Alexa Fluor® 647-labeled ADP tracer from the antibody, resulting in a decrease in TR-FRET signal. In the presence of an inhibitor, the amount of ADP formed by the kinase reaction is reduced, and the resulting intact antibodytracer interaction maintains a high TR-FRET signal. In the Adapta™ assay, the donor (Europium-anti-ADP antibody) is excited at 340 nm and will transfer its energy to the acceptor (Alexa Fluor® 647-labeled ADP tracer). The emission from the Alexa Fluor® 647 can be monitored with a filter centered at 665 nm because it is located between the emission peaks of the donor, which is measured at 615/620 nm. 50 nL of compound dilutions were dispensed onto white 384-well small volume polystyrene plate. Then 5 μL of either PI 3-kinase gamma or PI 3-kinase delta and lipid substrate (P1 or PIP2:PS) followed by 5 μL of ATP (final assay volume 10 μL) are incubated at RT. The standard reaction buffer for the Adapta™ TR-FRET assay contained 10 mM Tris-HCl pH 7.5, 3 mM MgCl2, 50 mM NaCl, 1 mM DTT, 0.05% CHAPS ((3-[(3-cholamidopropyl)dimethylammonio]-1-propanesulfonate). Reactions were stopped with 5 μL of a mixture of EDTA containing the Eu-labeled anti-ADP antibody and the Alexa Fluor® 647-labeled ADP tracer in TR-FRET dilution buffer. Plates are read 15 to 60 mins later in a Synergy2 reader using an integration time of 0.4 seconds and a delay of 0.05 seconds. Control for the 100% inhibition of the kinase reaction was performed by replacing the PI 3-kinase by the standard reaction buffer. […]
On the technique in general: TR-FRET usually uses a lanthanide donor and a delayed reading to cut background.
As for `Cc1ncc(-c2cncc(-c3cc(S(=O)(=O)NCCCO)ccc3C)n2)s1` [Example 1, N-(3-Hydroxy-propyl)-4-methyl-3-[6-(2-methyl-thiazol-5-yl)-pyrazin-2-yl]-benzenesulfonamide], the IC50 turned out to be 22 nM.

On to `Cc1ccc(S(=O)(=O)NCC(C)(C)O)cc1-c1cncc(-c2cn(C)nc2C)n1` [Example 2, 3-[6-(1,3-Dimethyl-1H-pyrazol-4-yl)-pyrazin-2-yl]-N-(2-hydroxy-2-methyl-propyl)-4-methyl-benzenesulfonamide], for which the IC50 stood at 19 nM.

Turning to `Cc1ccc(S(=O)(=O)NCCC(C)(C)O)cc1-c1cncc(-c2cn(C)nc2C)n1` [Example 3, 3-[6-(1,3-Dimethyl-1H-pyrazol-4-yl)-pyrazin-2-yl]-N-(3-hydroxy-3-methyl-butyl)-4-methyl-benzenesulfonamide], the 50% inhibitory concentration (IC50) is 48 nM.

With `Cc1ccc(S(=O)(=O)NCC2(C)COC2)cc1-c1cncc(-c2cn(C)nc2C)n1` [Example 4, Trans 3-[6-(1,3-Dimethyl-1H-pyrazol-4-yl)-pyrazin-2-yl]-4-methyl-N-(3-methyl-oxetan-3-ylmethyl)-benzenesulfonamide], the IC50 is 14 nM.

Consider `Cc1ncc(-c2cncc(-c3cc(S(=O)(=O)N[C@H]4CC[C@H](O)CC4)ccc3C)n2)s1` [Example 5, Trans N-(4-Hydroxycyclohexyl)-4-methyl-3-(6-(2-methylthiazol-5-yl)pyrazin-2-yl)benzenesulfonamide], for which the IC50 was 15 nM.

`Cc1ccc(S(=O)(=O)NCC(C)(C)CO)cc1-c1cncc(-c2cn(C)nc2C)n1` [Example 8, 3-[6-(1,3-Dimethyl-1H-pyrazol-4-yl)-pyrazin-2-yl]-N-(3-hydroxy-2,2-dimethyl-propyl)-4-methyl-benzenesulfonamide]: the IC50 amounted to 20 nM.

In the case of `Cc1ccc(S(=O)(=O)NCCC(C)(C)O)cc1-c1cncc(-c2cnn(CCN3CCOCC3)c2)n1` [Example 9, N-(3-Hydroxy-3-methyl-butyl)-4-methyl-3-{6-[1-(2-morpholin-4-yl-ethyl)-1H-pyrazol-4-yl]-pyrazin-2-yl}-benzenesulfonamide], the IC50 worked out at 160 nM.

As for `Cc1ccc(S(=O)(=O)NCCC(C)(C)O)cc1-c1cncc(-c2cn(CCN3CCOCC3)nc2C)n1` [Example 10, N-(3-Hydroxy-3-methyl-butyl)-4-methyl-3-{6-[3-methyl-1-(2-morpholin-4-yl-ethyl)-1H-pyrazol-4-yl]-pyrazin-2-yl}-benzenesulfonamide], the IC50 is 27 nM.

In the case of `Cc1ccc(S(=O)(=O)N[C@H]2CC[C@H](O)CC2)cc1-c1cncc(-c2cccnc2)n1` [Example 11, Trans N-(4-Hydroxy-cyclohexyl)-4-methyl-3-(6-pyridin-3-yl-pyrazin-2-yl)-benzenesulfonamide], the IC50 was 88 nM.

(Values after patent US9862711B2, “Pyrazine derivatives as phosphatidylinositol 3-kinase inhibitors” (NOVARTIS AG, priority 2014, dated 2018).)
